Target: T1, Estrogen receptor α (ER) (Homo sapiens, UniProt P03372, Y537S)
T1 construct: gene ESR1; HA-tagged ER mutant, doxycycline-inducible in MCF7
T1 sequence (P03372 1-595 Y537S): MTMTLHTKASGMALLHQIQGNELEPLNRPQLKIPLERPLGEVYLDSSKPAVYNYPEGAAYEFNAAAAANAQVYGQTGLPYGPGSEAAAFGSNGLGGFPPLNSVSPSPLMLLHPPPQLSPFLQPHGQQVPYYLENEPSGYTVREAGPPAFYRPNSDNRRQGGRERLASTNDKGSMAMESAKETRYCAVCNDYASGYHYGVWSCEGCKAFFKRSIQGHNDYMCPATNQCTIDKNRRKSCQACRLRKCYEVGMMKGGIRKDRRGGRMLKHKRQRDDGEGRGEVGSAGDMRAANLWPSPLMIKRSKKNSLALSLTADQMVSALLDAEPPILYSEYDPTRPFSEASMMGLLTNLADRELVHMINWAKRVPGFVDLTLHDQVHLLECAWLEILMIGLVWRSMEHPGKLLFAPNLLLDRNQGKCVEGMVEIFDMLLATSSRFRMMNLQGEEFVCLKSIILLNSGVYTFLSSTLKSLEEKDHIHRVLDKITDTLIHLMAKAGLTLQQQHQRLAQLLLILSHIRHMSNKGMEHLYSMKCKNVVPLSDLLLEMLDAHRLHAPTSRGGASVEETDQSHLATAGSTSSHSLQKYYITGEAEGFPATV
Assay: degradation of HA-tagged ER-Y537S by western blot in MCF7 cells ([…])
Format: cell-based

Question: For `Oc1ccc2c3c(cnc2c1)-c1ccc(C(F)(F)F)cc1O[C@@H]3c1ccc(OCCN2CC(CF)C2)cc1` [IML, imlunestrant], which “degradation of HA-tagged ER-Y537S by western blot in MCF7 cells (100 nM)” value is on record?
Answer: mutant-ER protein degradation was superior with imlunestrant treatment versus fulvestrant

From publication PMC12226049, “Imlunestrant a next-generation oral SERD overcomes ESR1 mutant resistance in estrogen receptor–positive breast cancer” (JCI Insight, 2025)
